From patent US10933141B2, “Formulations with reduced degradation of polysorbate” (Genentech, Inc., priority 2015, dated 2021)
Entries after “also recorded” stand apart in the source; their conditions may differ.

Target: T1, porcine pancreatic lipase (PPL) (Sus scrofa, UniProt P00591)
T1 construct: purchased Sigma Aldrich Inc. (St. Louis, Mo.)
T1 sequence (P00591 1-450): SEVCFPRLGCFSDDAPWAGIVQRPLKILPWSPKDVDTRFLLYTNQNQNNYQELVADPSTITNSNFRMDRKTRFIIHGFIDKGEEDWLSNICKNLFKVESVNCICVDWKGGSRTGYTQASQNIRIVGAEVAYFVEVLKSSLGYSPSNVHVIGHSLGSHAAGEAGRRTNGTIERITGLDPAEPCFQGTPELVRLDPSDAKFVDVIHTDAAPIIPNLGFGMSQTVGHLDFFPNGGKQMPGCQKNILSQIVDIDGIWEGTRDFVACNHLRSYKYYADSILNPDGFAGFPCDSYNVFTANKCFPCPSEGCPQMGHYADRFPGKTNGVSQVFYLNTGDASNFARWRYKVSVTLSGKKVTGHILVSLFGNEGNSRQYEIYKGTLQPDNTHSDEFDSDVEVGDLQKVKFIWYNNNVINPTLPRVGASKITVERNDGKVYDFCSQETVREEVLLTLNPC
Test: Enzymatic degradation of PS20 by PPL, 4.5 hour digestion, PS20 by RP-ELSD
Assay type: biochemical
Settings: for decrease in PS20: 0.02% PS20, pH 5.5, 15 μg/mL PPL 4.5 hours room temperature, excipient 15% w/v (cyclodextrins 106 mM); for inhibitory effect on enzymatic PS20 degradation (in words): 0.02% PS20, 15 μg/mL PPL 4.5 hours, excipient 15% w/v (methionine 10 mg/mL)
Protocol: Polysorbate concentration was determined using reverse phase ultra-performance liquid chromatography using evaporative light scattering detection (RP-ELSD). Samples were analyzed using an Agilent 1100 series high performance liquid chromatography system (HPLC) fitted with a Waters Oasis MAX cartridge column (20×2.1 mm, 30 μm particle size). The HPLC system was set up with a switching valve directing column flow-through to either waste or a Varian 380-LC evaporative light scattering detector set to 100° C. The mobile phases consisted of 2% formic acid in water (Pump A) and 2% formic acid in isopropanol (Pump B). The pump gradient was isocratic at 10% pump B during equilibration, linear to 20% pump B for 1 minute, isocratic at 20% pump B for 2.4 minutes, linear to 100% pump B for 0.1 minutes, isocratic at 100% pump B for 1.1 minutes, linear to 10% pump B for 0.1 minutes, and finally isocratic at 10% pump B for 1.9 minutes. The switching valve directed column flow-through to waste at the beginning of every injection, and then directed flow to the detector after 2.4 minutes until the end of the gradient. In order to quantitate the PS20 concentration, a standard curve was generated by injecting 20 μL of solutions containing between 0% w/v and 0.4% w/v PS20.
Several excipients were tested for their ability to protect PS20 against enzymatic hydrolysis including HP-α-CD, HP-β-CD, HP-γ-CD, SBE-β-CD, PVP, PEG 1500, sucrose, and methionine. Solutions of each excipient in pH 5.5 buffer were prepared containing a final concentration of 0.02% PS20 after enzyme addition. The concentration of HP-α-CD, HP-β-CD, HP-γ-CD, and SBE-β-CD in the excipient solutions was 106 mM. […] The remaining excipients (PVP, PEG 1500, sucrose) were added to 15% w/v to match the % w/v of HP-β-CD. Samples were digested with 15 μg/mL PPL enzyme for 4.5 hours at room temperature, followed by 30 minutes of heat inactivation at 85° C. Each sample was analyzed for PS20 concentration using high performance liquid chromatography with an inline evaporative light scattering detector. Samples were then placed at 5° C. overnight to allow for the formation of particles and were analyzed for visible and subvisible particles as described previously.
The effect of the HP-β-CD concentration at different PS20 concentrations on the enzymatic degradation of PS20 was assessed to identify optimal concentrations for inhibition of enzymatic PS20 degradation. To evaluate the dependence of PS20 degradation on HP-β-CD concentration, the PS20 content was determined using RP-ELSD for triplicate samples containing different HP-β-CD concentrations at various PS20 concentrations. Samples containing 0.005% (FIG. 14A), 0.02% (FIG. 14B), 0.1% (FIG. 14C), and 0.4% PS20 (FIG. 14D) were digested using 15 μg/mL of PPL enzyme for 4.5 hours at room temperature in protein-free samples containing no excipient (control), 0, 0.5, 5, and 15% (w/v) HP-β-CD. PPL was added to each of the treatment solutions at a ratio of 75 […], with an equivalent volume of buffer added to the control solutions to determine the effect of HP-β-CD to polysorbate ratio on enzymatic degradation. Digestion was stopped by heat inactivation in an 85° C. water bath for 30 minutes. Each sample was analyzed for PS20 concentration using high performance liquid chromatography with an inline evaporative light scattering detector as described above. Samples were then placed at 5° C. overnight to allow for the formation of particles and placed on ice during analysis for visible and subvisible particles as described above.

Molecule: 2-hydroxypropyl-α-cyclodextrin [HP-α-CD]
- decrease in PS20: 1%
- inhibitory effect on enzymatic PS20 degradation (in words): significant inhibitory effects; also recorded: able to prevent enzymatic degradation of PS20

Molecule: 2-hydroxypropyl-β-cyclodextrin [HP-β-CD]
- HP-β-CD concentration required to fully inhibit PS20 degradation (0.005% PS20, PPL 4.5 hours): 0.5%
- decrease in PS20: 7%
- inhibitory effect on enzymatic PS20 degradation (in words): significant inhibitory effects; also recorded: able to prevent enzymatic degradation of PS20
- HP-β-CD concentration required to fully inhibit PS20 degradation (0.1% PS20, PPL 4.5 hours): 15%
- HP-β-CD:PS20 ratio required to inhibit enzymatic PS20 degradation (PPL 4.5 hours, across PS20 and HP-β-CD concentrations): ≥ 37.5 w/w
- PS20 remaining (Relative %) ([HP-β-CD]/[PS20] wt/wt ratio 0.5 (mole ratio 0.4), PPL 4.5 hours): 41.4 Relative %
- PS20 remaining (Relative %) ([HP-β-CD]/[PS20] wt/wt ratio 1.25 (mole ratio 1.1), PPL 4.5 hours): 41.2 Relative %
- PS20 remaining (Relative %) ([HP-β-CD]/[PS20] wt/wt ratio 2.5 (mole ratio 2.2), PPL 4.5 hours): 44.0 Relative %
- PS20 remaining (Relative %) ([HP-β-CD]/[PS20] wt/wt ratio 5 (mole ratio 4.35), PPL 4.5 hours): 65.3 Relative %
- PS20 remaining (Relative %) ([HP-β-CD]/[PS20] wt/wt ratio 12.5 (mole ratio 10.9), PPL 4.5 hours): 86.4 Relative %
- PS20 remaining (Relative %) ([HP-β-CD]/[PS20] wt/wt ratio 25 (mole ratio 21.8), PPL 4.5 hours): 90.3 Relative %
- PS20 remaining (Relative %) ([HP-β-CD]/[PS20] wt/wt ratio 37.5 (mole ratio 32.6), PPL 4.5 hours): 106.7 Relative %
- PS20 remaining (Relative %) ([HP-β-CD]/[PS20] wt/wt ratio 50 (mole ratio 43.5), PPL 4.5 hours): 98.6 Relative %
- PS20 remaining (Relative %) ([HP-β-CD]/[PS20] wt/wt ratio 100 (mole ratio 87.0), PPL 4.5 hours): 93.9 Relative %
- PS20 remaining (Relative %) ([HP-β-CD]/[PS20] wt/wt ratio 150 (mole ratio 130.5), PPL 4.5 hours): 108.3 Relative %
- PS20 remaining (Relative %) ([HP-β-CD]/[PS20] wt/wt ratio 250 (mole ratio 217.6), PPL 4.5 hours): 101.9 Relative %
- PS20 remaining (Relative %) ([HP-β-CD]/[PS20] wt/wt ratio 750 (mole ratio 652.7), PPL 4.5 hours): 104.2 Relative %
- PS20 remaining (Relative %) ([HP-β-CD]/[PS20] wt/wt ratio 1000 (mole ratio 870.2), PPL 4.5 hours): 104.3 Relative %
- PS20 remaining (Relative %) ([HP-β-CD]/[PS20] wt/wt ratio 3000 (mole ratio 2610.6), PPL 4.5 hours): 112.4 Relative %

Molecule: 2-hydroxypropyl-γ-cyclodextrin [HP-γ-CD]
- inhibitory effect on enzymatic PS20 degradation (in words): able to prevent enzymatic degradation of PS20

Molecule: OC[C@H]1O[C@@](CO)(O[C@H]2O[C@H](CO)[C@@H](O)[C@H](O)[C@H]2O)[C@@H](O)[C@@H]1O [sucrose, reference compound]
- decrease in PS20: 58%
- inhibitory effect on enzymatic PS20 degradation (in words): does not have an inhibitory effect
